The source of these data is patent publication US8323680B1, “Nutritional composition” (Nestec S.A., priority 1999, dated 2012).

Assay [1] in a line: Effects of oral administration of cannabimimetic lipids on ambulation, rearing, immobility, analgesia, body temperature and fecal output (FIG. 3-5). The assay is classed as in vivo. The settings on record: for immobility, difference from control group / rearing, difference from control group / body temperature, difference from control group: p<0.01-0.05, ANOVA, Newman-Keuls.
Assay [2] concerns mice. The settings on record: oral, anandamide 300 mgkg body weight−1, 2-arachidonoyl glycerol 400 mgkg body weight−1; cited from earlier work.
Assay [3] deals with animals. As to conditions: injected into animals; cited from earlier work.
The subject of assay [4] is male Rj:NMRI mice. Put plainly: ELEVATED PLUS MAZE TEST, number of entries in the closed arms. The assay is classed as in vivo. The settings on record: for Number of Entries in the Closed Arms, average entries: diets for 42 days, agent intraperitoneally 60 minutes before test. Here is the method:
In order to show the biological activity of the composition of the present invention on animal's behaviour the effect of dietary poly-unsaturated fatty acids with and without a CB-1 receptor antagonist on anxiolytic-like responses in mice were tested. To this end, the ELEVATED PLUS MAZE TEST was applied (adapted after Handley and Mithani (Naunyn. Schmied. Arch. Pharmacol. 327: 1-5, 1984).
For the experiments male Rj:NMRI mice, obtained from Elevage Janvier, Le Genest-Saint-Isle France and weighing 10-11 g at delivery and 33-51 grams on day 42 were used. The mice were housed 10 per cage in wire cages with bedding and normal light cycle. They received ad libitum quantities of bottled distilled water and purified powdered diets (7.5 g/mouse) in ceramic cups (10/group) for 42 days. The Food was maintained at −80° C. in daily aliquots under nitrogen, thawed each afternoon before administration to mice. Uneaten food was discarded daily.
The principle of the test resides in that anxiolytic agents increase the number of entries into the open and often the closed arms of the […], mice should want to move and explore the spaces of the open and closed arms rather than staying still in the middle).
Mice were given the following agents intraperitoneally 60 minutes before the Plus Maze test:
All diets contained 90% fat-free AIN93G rodent diet in powder form (Lot 9350-5, Dyets, Inc., Bethlehem, Pa.), 0.4% milk fat, 1.2% palm olein, 1.9% Trisun sunflower oil, 1.5% soybean oil and 2.1-5.1% medium chain triacylglycerol oil. Parts of the medium chain triacylglycerol oil were replaced with 1.1% algal oil (providing 0.5 dietary wt.-% arachidonic acid) in diet D, 1.9% fish oil (providing 0.5 dietary wt.-% docosahexaenoic acid) in diet E, and with 1.1% algal oil and 1.9% fish oil in diets F and G. Dietary groups are summarized in the table below:
The body weight, weight gain and the food intake of the mice was monitored throughout the experiment. […]

Regarding `CCCCCc1cc(O)c2c(c1)OC(C)(C)[C@@H]1CCC(C)=C[C@@H]21` [THC, 9-tetrahydrocannabinol], in assay [1] (oral administration), the analgesia entry is given as “significantly increased analgesia”; the “immobility, difference from control group” value (“immobility, difference” below) is reported as “significantly different”; the “rearing, difference from control group” value was “significantly different”. Also, the “body temperature, difference from control group” value (“body temperature, difference” below) in assay [1] is “significantly different”.

As for N-arachidonylethanolamine [anandamide], in assay [1] (oral administration), the “immobility, difference” value is “significantly different” and the “rearing, difference from control group” value was “significantly different”. Besides, the “body temperature, difference” value in assay [1] is “significantly different”. The “bioactivity when taken orally” value in assay [2] is listed as “have bioactivity”. Moreover, in assay [3], the “effects of pure doses when injected” value was “calming effects and effects on the immune system”.

Turning to `CCCCCCCC/C=C\CCCCCCCC(N)=O` [oleamide], in assay [1] (oral administration), the “immobility, difference” value was “significantly different” and the “rearing, difference from control group” value is recorded as “significantly different”. Besides, the “body temperature, difference” value in assay [1] is listed as “significantly different”. Moreover, the “effects of pure doses when injected” value in assay [3] was “calming effects and effects on the immune system”.

As to `Cc1c(C(=O)NN2CCCCC2)nn(-c2ccc(Cl)cc2Cl)c1-c1ccc(I)cc1` [C], the “Number of Entries in the Closed Arms, average entries” value in assay [4] came to 2.3. In addition, in assay [4] (p-value = 0.19), the “Number of Entries in the Closed Arms, difference vs. group A” value was “There was no significant difference (p-value = 0.19)”.

Consider 2 arachidonylglycerol [Diet 2-AG], for which, in assay [1] (oral administration), the “immobility, difference” value was “significantly different” and the “rearing, difference from control group” value is given as “significantly different”. In addition, the “body temperature, difference” value in assay [1] is reported as “significantly different”. In addition, in assay [2], the “bioactivity when taken orally” value was “have bioactivity”. In addition, in assay [3], the “effects of pure doses when injected” value is “calming effects and effects on the immune system”.

Regarding `CN1C(=O)CC(=O)N(c2ccccc2)c2cc(Cl)ccc21` [Clobazam], in assay [4], the “Number of Entries in the Closed Arms, average entries” value was determined as 6.3.
